Experimental data published in paper PMC9257893 (The Onderstepoort Journal of Veterinary Research, 2022).
Values joined by “and” are separate entries in the source; they are usually repeats but may differ in a detail not shown here. Equal values may be shown once. Read-outs that look alike come from different tables or passages of the source.

Experiments:
[1] = set-up: method as in Naidoo et al. [2007]; details: Cape Griffon Vulture; ref Naidoo et al. [2007]; cited from earlier work
[2] = set-up: method as in Naidoo et al. [2007]; details: African White-backed Vulture; ref Naidoo et al. [2007]; cited from earlier work
[3] = Diclofenac plasma pharmacokinetics in chickens after IV dosing (HPLC, non-compartmental); details: for AUC(0-inf): AUCinf; for AUC(0-t): AUClast
Method: Birds still alive after 15 days were terminated by sedation and carbon dioxide asphyxiation.
Scheduled and unscheduled deaths were submitted to the University of Pretoria Paraclinical Department, section of veterinary pathology, for full gross and histological evaluation. Where needed, samples were collected in 10% buffered formalin, sectioned and stained via haematoxylin & eosin (H&E) technique and subjected to histopathologic examination.
Samples were analysed at the University of Pretoria, Veterinary, Paraclinical Department, toxicology and pharmacology laboratory. […] In short, 200 μL of plasma was placed in a 2-mL tube, followed sequentially by 400 μL of diethyl ether and 400 μL of potassium dihydrogen phosphate (0.3 M and pH 3.5). […] The separated organic phase was dried under nitrogen flow at 50 °C until dry.
For analysis, 30 μL was injected at […], and detection at 275 nm.
Concentration-time data generated following HPLC analysis was dose equalised to 1 mg/kg and evaluated by non-compartmental modelling (Kinetica 5.1, Thermo Scientific). The pharmacokinetic parameters maximum plasma concentration (Cmax) and time to maximum plasma concentration (Tmax) were read off the curve.
Area under the plasma curve extrapolated to infinity was calculated as: • AUCinf=AUClast+AUCextra, [Eqn 3] where AUCextra=Clast/β,Clast
is the last measured concentration and β is the terminal elimination portion of the curve gradient, on a natural logarithmic scale.
The half-life of elimination (T1/2) was calculated as: • T1/2=Ln 2/β. [Eqn 4]
Whole plasma clearance (Cl) was calculated as: • Cl=Dose/AUClast. [Eqn 5]
Volume of distribution (Vd) was calculated as: • Vd=Dose/CP0, [Eqn 6] where CP0 was the calculated concentration at time 0.
The mean residence time (MRT) was calculated as: • MRT=Dose Cp0/β. [Eqn 7]

[4] = Gyps vultures; cited from earlier work
[5] = pigeon; cited from earlier work
[6] = in vivo, iv, 1 mg/kg, control group (diclofenac IV alone), birds alive, GM, dose corrected to 1 mg/kg
[7] = in vivo, iv, 1 mg/kg, control group (diclofenac IV alone), birds dead, GM, dose corrected to 1 mg/kg
[8] = in vivo, iv, test group (fluconazole + diclofenac IV), birds alive, GM, dose corrected to 1 mg/kg
[9] = test group (fluconazole + diclofenac IV), birds alive, GM, dose corrected to 1 mg/kg
[10] = test group (fluconazole + diclofenac IV), birds dead, GM, dose corrected to 1 mg/kg

For `O=C(O)Cc1ccccc1Nc1c(Cl)cccc1Cl` [diclofenac, diclofenac sodium], which MRT [1] is on record?
Its MRT is 15.11 h.

What about the T1/2 [1] of the same molecule?
The T1/2 was 12.24 h.

What about the MRT [2] of the same molecule?
The MRT was 26.10 h.

And the T1/2 [2]?
The T1/2 was 16.78 h.

And the Cmax ([3]; chicken (Gallus gallus domesticus), in vivo, iv, mean Cmax, mean value stated in text, chickens, IV diclofenac)?
The Cmax was 510 ng/mL.

What about the Tmax ([3]; chicken (Gallus gallus domesticus), in vivo, iv, mean Tmax, mean value stated in text, chickens, IV diclofenac) of the same molecule?
The Tmax was 0.38 h.

And the “Lz (terminal elimination phase rate constant)” value (“Lz” for short) ([3]; control group (diclofenac IV alone), birds alive, GM)?
The value was 0.88 h⁻¹.

And the AUMClast ([3]; control group (diclofenac IV alone), birds alive, GM, dose corrected to 1 mg/kg)?
Its AUMClast is 0.35 μg/mL*(h)^2.

What about the “Lz” value ([3]; control group (diclofenac IV alone), birds dead, GM) of the same molecule?
Its value is 0.34 h⁻¹.

And the AUMClast ([3]; control group (diclofenac IV alone), birds dead, GM, dose corrected to 1 mg/kg)?
Its AUMClast is 0.27 μg/mL*(h)^2.

What about the “T1/2 of individual birds” value ([3]; control group birds receiving the two highest doses) of the same molecule?
Its value is 7.01 h and 2.75 h.

What about the AUC(0-inf) [3, 6] of the same molecule?
Its AUC(0-inf) is 570 ng·h/mL.

And the AUC(0-inf) [3, 7]?
Its AUC(0-inf) is 760 ng·h/mL.

And the AUC(0-t) [3, 6]?
The AUC(0-t) was 460 ng·h/mL.

What about the AUC(0-t) [3, 7] of the same molecule?
The AUC(0-t) was 310 ng·h/mL.

What about the Cmax ([3]; in vivo, iv, 1 mg/kg, Cmax, control group (diclofenac IV alone), birds alive, GM, dose corrected to 1 mg/kg) of the same molecule?
Its Cmax is 520 ng/mL.

And the Cmax ([3]; in vivo, iv, 1 mg/kg, Cmax, control group (diclofenac IV alone), birds dead, GM, dose corrected to 1 mg/kg)?
The Cmax was 240 ng/mL.

What about the AUC(0-inf) [3, 8] of the same molecule?
The AUC(0-inf) was 550 ng·h/mL.

What about the AUC(0-inf) ([3]; in vivo, iv, test group (fluconazole + diclofenac IV), birds dead, GM, dose corrected to 1 mg/kg) of the same molecule?
Its AUC(0-inf) is 1130 ng·h/mL.

What about the AUC(0-t) ([3]; in vivo, iv, geometric mean, control group, all birds) of the same molecule?
The AUC(0-t) was 400 ng·h/mL.

What about the AUC(0-t) ([3]; in vivo, iv, geometric mean, test group (CYP inhibitor), all birds) of the same molecule?
Its AUC(0-t) is 500 ng·h/mL.

And the AUC(0-t) [3, 8]?
Its AUC(0-t) is 420 ng·h/mL.

What about the clearance ([3]; in vivo, iv, Cl, control group (diclofenac IV alone), birds alive, GM) of the same molecule?
Its clearance is 29 mL/min/kg.

What about the clearance ([3]; in vivo, iv, Cl, control group (diclofenac IV alone), birds dead, GM) of the same molecule?
Its clearance is 22 mL/min/kg.

What about the clearance ([3]; in vivo, iv, Cl, test group (fluconazole + diclofenac IV), birds alive, GM) of the same molecule?
The clearance was 30.5 mL/min/kg.

What about the clearance ([3]; in vivo, iv, Cl, test group (fluconazole + diclofenac IV), birds dead, GM) of the same molecule?
The clearance was 14.7 mL/min/kg.

And the Cmax ([3]; in vivo, iv, Cmax, geometric mean, control group, all birds)?
Its Cmax is 410 ng/mL.

And the Cmax ([3]; in vivo, iv, Cmax, geometric mean, test group (CYP inhibitor), all birds)?
The Cmax was 610 ng/mL.

What about the Cmax ([3]; in vivo, iv, Cmax, test group (fluconazole + diclofenac IV), birds dead, GM, dose corrected to 1 mg/kg) of the same molecule?
Its Cmax is 1240 ng/mL.

What about the MRT ([3]; in vivo, iv, control group (diclofenac IV alone), birds alive, GM) of the same molecule?
Its MRT is 1.17 h.

What about the MRT ([3]; in vivo, iv, control group (diclofenac IV alone), birds dead, GM) of the same molecule?
Its MRT is 3.14 h.

And the MRT ([3]; in vivo, iv, test group (fluconazole + diclofenac IV), birds alive, GM)?
Its MRT is 1.34 h.

What about the MRT ([3]; in vivo, iv, test group (fluconazole + diclofenac IV), birds dead, GM) of the same molecule?
The MRT was 1.33 h.

What about the half-life ([3]; in vivo, iv, T1/2, control group (diclofenac IV alone), birds alive, GM) of the same molecule?
The half-life was 0.79 h.

What about the half-life ([3]; in vivo, iv, T1/2, test group (fluconazole + diclofenac IV), birds alive, GM) of the same molecule?
Its half-life is 0.85 h.

What about the half-life ([3]; in vivo, iv, T1/2, test group (fluconazole + diclofenac IV), birds dead, GM) of the same molecule?
Its half-life is 0.96 h.

And the Tmax ([3]; in vivo, iv, Tmax, control group (diclofenac IV alone), birds alive, GM)?
Its Tmax is 0.4 h.

And the Tmax ([3]; in vivo, iv, Tmax, control group (diclofenac IV alone), birds dead, GM)?
The Tmax was 0.4 h.

What about the Tmax ([3]; in vivo, iv, Tmax, test group (fluconazole + diclofenac IV), birds alive, GM) of the same molecule?
The Tmax was 0.35 h.

And the Tmax ([3]; in vivo, iv, Tmax, test group (fluconazole + diclofenac IV), birds dead, GM)?
The Tmax was 0.25 h.

What about the Vd ([3]; in vivo, iv, Vss, control group (diclofenac IV alone), birds alive, GM) of the same molecule?
Its Vd is 2.04 L/kg.

And the Vd ([3]; in vivo, iv, Vss, control group (diclofenac IV alone), birds dead, GM)?
The Vd was 4.16 L/kg.

And the Vd ([3]; in vivo, iv, Vss, test group (fluconazole + diclofenac IV), birds alive, GM)?
Its Vd is 2.44 L/kg.

And the Vd ([3]; in vivo, iv, Vss, test group (fluconazole + diclofenac IV), birds dead, GM)?
The Vd was 1.17 L/kg.

What about the Vd ([3]; in vivo, iv, Vz, control group (diclofenac IV alone), birds alive, GM) of the same molecule?
The Vd was 1.98 L/kg.

What about the Vd ([3]; in vivo, iv, Vz, control group (diclofenac IV alone), birds dead, GM) of the same molecule?
Its Vd is 3.88 L/kg.

And the Vd ([3]; in vivo, iv, Vz, test group (fluconazole + diclofenac IV), birds alive, GM)?
Its Vd is 2.24 L/kg.

What about the Vd ([3]; in vivo, iv, Vz, test group (fluconazole + diclofenac IV), birds dead, GM) of the same molecule?
Its Vd is 1.23 L/kg.

What about the clearance ([3]; in vivo, iv, clearance, geometric mean, control group, all birds) of the same molecule?
The clearance was 26.5 mL/min/kg.

What about the clearance ([3]; in vivo, iv, clearance, geometric mean, test group (CYP inhibitor), all birds) of the same molecule?
Its clearance is 25.3 mL/min/kg.

What about the “Lz” value ([3]; test group (fluconazole + diclofenac IV), birds alive, GM) of the same molecule?
Its value is 0.82 h⁻¹.

What about the AUMClast [3, 9] of the same molecule?
The AUMClast was 0.34 μg/mL*(h)^2.

What about the Cmax [3, 9] of the same molecule?
Its Cmax is 480 ng/mL.

And the “Lz” value ([3]; test group (fluconazole + diclofenac IV), birds dead, GM)?
The value was 0.72 h⁻¹.

And the AUClast [3, 10]?
The AUClast was 870 ng·h/mL.

What about the AUMClast [3, 10] of the same molecule?
The AUMClast was 0.63 μg/mL*(h)^2.

What about the T1/2 [4] of the same molecule?
Its T1/2 is greater than 7 h.

And the T1/2 [5]?
The T1/2 was less than 7 h.
